Source: ChEMBL document CHEMBL5360631, “Creation of a Peptide Antagonist of the GFRAL-RET Receptor Complex for the Treatment of GDF15-Induced Malaise” (J Med Chem, 2023)
Blank lines part the entries; values can stand above or below the compound they belong to. Activity calls are given as the source filed them. The rule behind the calls is not given here. Numbered stars: 1 amine (or outer) side, 2 acyl side, 3 side chain; on linkers, the order of the positions; unused ones are H or OH. Square brackets hold non-standard residues; d marks the D form. Side chains are listed from the residue outwards. Peptide text beside a SMILES is read from it. * marks the point of attachment. X4 = CN1/C(=C/C=C/C=C/C2=[N+](CCCCCC(=O)*)c3ccc(S(=O)(=O)[O-])cc3C2(C)C)C(C)(C)c2cc(S(=O)(=O)O)ccc21; X3 = C[C@@H](O)[C@@H](C(=O)[*:2])N(CCCn1nnc2c1-c1ccccc1CN([*:3])c1ccccc1-2)[*:1]; Biotin = O=C1N[C@H]2[C@H](CS[C@H]2CCCCC(=O)*)N1; GABA = NCCCC(=O)O

How the values were obtained:
[1] = target: T1, GDNF family receptor alpha-like (Homo sapiens, UniProt Q6UXV0); assay: Binding affinity to C-terminal polyhis-tagged recombinant human GFRAL (19 to 351 residues) expressed in HEK293 cells assessed as dissociation constant with increasing enzyme concentration by SPR analysis
T1 sequence (Q6UXV0 whole entry): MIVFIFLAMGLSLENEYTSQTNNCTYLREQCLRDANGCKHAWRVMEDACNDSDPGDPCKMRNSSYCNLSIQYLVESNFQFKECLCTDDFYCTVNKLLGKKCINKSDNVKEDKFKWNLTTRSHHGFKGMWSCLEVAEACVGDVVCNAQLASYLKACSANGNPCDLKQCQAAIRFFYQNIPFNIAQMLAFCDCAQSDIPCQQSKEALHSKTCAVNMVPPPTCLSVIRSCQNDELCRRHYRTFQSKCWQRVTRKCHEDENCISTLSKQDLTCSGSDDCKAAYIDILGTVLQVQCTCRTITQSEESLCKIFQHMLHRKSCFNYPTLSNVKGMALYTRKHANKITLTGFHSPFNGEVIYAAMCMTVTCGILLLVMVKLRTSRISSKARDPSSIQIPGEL

[2] = target: T1, GDNF family receptor alpha-like; assay: Binding affinity to C-terminal polyhis-tagged recombinant human GFRAL (19 to 351 residues) expressed in HEK293 cells assessed as dissociation constant by SPR analysis
[3] = Toxicity in Sprague-Dawley rat assessed as food intake at 300 to 3000 pmol, ICV measured for 24 hrs; settings: in vivo, icv_or_intrathecal, dose 300-3000 pmol
[4] = Toxicity in Sprague-Dawley rat assessed as kaolin intake at 300 to 3000 pmol, ICV measured for 24 hrs; settings: in vivo, icv_or_intrathecal, dose 300-3000 pmol
[5] = system: Rattus norvegicus; assay: Effect on pica behaviour in Sprague-Dawley rat assessed as reduction in GDF-15-induced kaolin intake pretreated intracerebroventricularly followed by GDF-15 treatment measured for 24 hrs; type: functional; settings: dose 300-3000 pmol, route icv
[6] = system: Rattus norvegicus; assay: Effect on GDF-15-induced anorexia in Sprague-Dawley rat at 300 to 3000 pmol pre-treated intracerebroventricularly followed by GDF-15 treatment measured for 24 hrs; type: functional; settings: dose 300-3000 pmol, route icv
[7] = Toxicity in Sprague-Dawley rat assessed as food intake at 30 to 100 nmol/kg, IP measured for 24 hrs; settings: in vivo, dose 30-100 nmol/kg
[8] = Toxicity in Sprague-Dawley rat assessed as kaolin intake at 30 to 100 nmol/kg, IP measured for 24 hrs; settings: in vivo, dose 30-100 nmol/kg
[9] = system: Rattus norvegicus; assay: Effect on GDF-15-induced anorexia in Sprague-Dawley rat at 30 to 100 nmol/kg pretreated intraperitoneally followed by GDF-15 treatment measured for 24 hrs; type: functional; settings: dose 30-100 nmol/kg, route ip
[10] = system: Rattus norvegicus; assay: Effect on pica behaviour in Sprague-Dawley rat assessed as reduction in GDF-15-induced kaolin intake at 100 nmol/kg pretreated intraperitoneally followed by GDF-15 treatment measured for 24 hrs; type: functional; settings: route ip
[11] = Toxicity in Sprague-Dawley rat assessed as kaolin intake at 100 nmol/kg, IP measured for 24 hrs; settings: in vivo
[12] = Toxicity in Sprague-Dawley rat assessed as food intake at 100 nmol/kg, IP measured for 24 hrs; settings: in vivo
[13] = system: Rattus norvegicus; assay: Effect on pica behaviour in Sprague-Dawley rat assessed as reduction in cisplatin-induced kaolin intake at 100 nmol/kg, IP pretreated for 15 mins followed by cisplatin treatment measured for 6 hrs; type: functional; settings: time 6.25 hrs
[14] = Toxicity in Sprague-Dawley rat assessed as drug tolerance at 100 nmol/kg, IP measured for 24 hrs; settings: in vivo
[15] = Toxicity in Sprague-Dawley rat assessed as drug tolerance at 100 nmol/kg, IP measured for 24 hrs in presence of Ondansetron; settings: in vivo
[16] = system: Rattus norvegicus; assay: Effect on pica behaviour in Sprague-Dawley rat assessed as food intake at 100 nmol/kg, IP measured for 24 hrs; type: functional
[17] = system: Rattus norvegicus; assay: Effect on pica behaviour in Sprague-Dawley rat assessed as kaolin intake at 100 nmol/kg, IP measured for 24 hrs; type: functional
[18] = system: Rattus norvegicus; assay: Effect on pica behaviour in Sprague-Dawley rat assessed as food intake at 100 nmol/kg, IP measured for 24 hrs in presence of Ondansetron; type: functional
[19] = system: Rattus norvegicus; assay: Effect on pica behaviour in Sprague-Dawley rat assessed as kaolin intake at 100 nmol/kg, IP measured for 24 hrs in presence of Ondansetron; type: functional
[20] = system: Rattus norvegicus; assay: Effect on pica behaviour in Sprague-Dawley rat assessed as reduction in cisplatin-induced kaolin intake at 100 nmol/kg, IP bid measured for 24 hrs; type: functional
[21] = Toxicity in cisplatin-induced nausea and vomiting Sprague-Dawley rat model assessed as additive effect at 100 nmol/kg, IP bid measured for 24 hrs in presence of Ondansetron; settings: in vivo
[22] = system: Rattus norvegicus; assay: Effect on pica behaviour in Sprague-Dawley rat assessed as reduction in cisplatin-induced kaolin intake at 2 mg/kg, IP measured for 24 hrs; type: functional, organism-based
[23] = system: Rattus norvegicus; assay: Effect on pica behaviour in Sprague-Dawley rat assessed as reduction in cisplatin-induced anorexia at 100 nmol/kg, IP bid measured for 24 hrs in presence of Ondansetron; type: functional
[24] = target: T1, GDNF family receptor alpha-like; assay: Binding affinity to C-terminal polyhis-tagged recombinant human GFRAL (19 to 351 residues) expressed in HEK293 cells assessed as dissociation constant by flow cytometric analysis; type: cell-based

- Kd [1]: 74.1 nM
SMILES: CC[C@H](C)[C@H](NC(=O)[C@H](CC(C)C)NC(=O)[C@H](CCC(=O)O)NC(=O)[C@H](CCC(=O)O)NC(=O)[C@H](CCCCN)NC(=O)[C@@H](NC(=O)CCCC[C@@H]1SC[C@@H]2NC(=O)N[C@@H]21)[C@@H](C)O)C(=O)N[C@@H](Cc1c[nH]cn1)C(=O)N[C@@H](C)C(=O)N[C@@H](Cc1c[nH]cn1)C(=O)N[C@@H](C)C(=O)N[C@@H](CC(=O)O)C(=O)N1CCC[C@H]1C(=O)N[C@@H](CCSC)C(=O)N[C@H](C(=O)N[C@@H](CC(C)C)C(=O)N[C@H](C(=O)N[C@@H](CCC(N)=O)C(=O)N[C@@H](CCCCN)C(=O)N[C@H](C(=O)N[C@@H](CC(=O)O)C(=O)N[C@H](C(=O)NCC(=O)N[C@H](C(=O)N[C@@H](CO)C(=O)N[C@@H](CC(C)C)C(=O)N[C@@H](CCC(N)=O)C(=O)N[C@H](C(=O)N[C@@H](Cc1ccc(O)cc1)C(=O)N[C@@H](CC(=O)O)C(=O)O)[C@@H](C)O)C(C)C)[C@@H](C)O)[C@@H](C)O)[C@@H](C)CC)C(C)C (Biotin-TKEELIHAHADPMVLIQKTDTGVSLQTYD-OH)

- Kd [2]: 179 µM
SMILES: CC[C@H](C)[C@H](NC(=O)[C@H](CC(C)C)NC(=O)[C@H](CCC(=O)O)NC(=O)[C@H](CCC(=O)O)NC(=O)[C@H](CCCCN)NC(=O)[C@@H](N)[C@@H](C)O)C(=O)N[C@@H](Cc1c[nH]cn1)C(=O)N[C@@H](C)C(=O)N[C@@H](Cc1c[nH]cn1)C(=O)N[C@@H](C)C(=O)N[C@@H](CC(=O)O)C(=O)N1CCC[C@H]1C(=O)N[C@@H](CCSC)C(=O)N[C@H](C(=O)N[C@@H](CC(C)C)C(=O)N[C@H](C(=O)N[C@@H](CCC(N)=O)C(=O)N[C@@H](CCCCN)C(=O)N[C@H](C(=O)N[C@@H](CC(=O)O)C(=O)N[C@H](C(=O)NCC(=O)N[C@H](C(=O)N[C@@H](CO)C(=O)N[C@@H](CC(C)C)C(=O)N[C@@H](CCC(N)=O)C(=O)N[C@H](C(=O)N[C@@H](Cc1ccc(O)cc1)C(=O)N[C@@H](CC(=O)O)C(=O)O)[C@@H](C)O)C(C)C)[C@@H](C)O)[C@@H](C)O)[C@@H](C)CC)C(C)C (H-TKEELIHAHADPMVLIQKTDTGVSLQTYD-OH)
- Activity [3]: Non-Toxic
- Activity [4]: Non-Toxic
- Activity [5]: Active
- Activity [6]: inactive
- Activity [7]: Non-Toxic
- Activity [8]: Non-Toxic
- Activity [9]: inactive
- Activity [10]: Active
- Activity [11]: Non-Toxic
- Activity [12]: Non-Toxic
- Activity [13]: Active
- Activity [14]: Non-Toxic
- Activity [15]: Non-Toxic
- Activity [16]: inactive
- Activity [17]: inactive
- Activity [18]: inactive
- Activity [19]: inactive
- Activity [20]: Active
- Activity [21]: Non-Toxic
- Activity [22]: Active
- Activity [23]: Active

SMILES: CC[C@H](C)[C@H](NC(=O)[C@H](CC(C)C)NC(=O)[C@H](CCC(=O)O)NC(=O)[C@H](CCC(=O)O)NC(=O)[C@H](CCCCN)NC(=O)[C@@H](NCCCn1nnc2c1-c1ccccc1CN(C(=O)CCCNC(=O)CCCCC[N+]1=C(/C=C/C=C/C=C3/N(C)c4ccc(S(=O)(=O)O)cc4C3(C)C)C(C)(C)c3cc(S(=O)(=O)[O-])ccc31)c1ccccc1-2)[C@@H](C)O)C(=O)N[C@@H](Cc1c[nH]cn1)C(=O)N[C@@H](C)C(=O)N[C@@H](Cc1c[nH]cn1)C(=O)N[C@@H](C)C(=O)N[C@@H](CC(=O)O)C(=O)N1CCC[C@H]1C(=O)N[C@@H](CCSC)C(=O)N[C@H](C(=O)N[C@@H](CC(C)C)C(=O)N[C@H](C(=O)N[C@@H](CCC(N)=O)C(=O)N[C@@H](CCCCN)C(=O)N[C@H](C(=O)N[C@@H](CC(=O)O)C(=O)N[C@H](C(=O)NCC(=O)N[C@H](C(=O)N[C@@H](CO)C(=O)N[C@@H](CC(C)C)C(=O)N[C@@H](CCC(N)=O)C(=O)N[C@H](C(=O)N[C@@H](Cc1ccc(O)cc1)C(=O)N[C@@H](CC(=O)O)C(=O)O)[C@@H](C)O)C(C)C)[C@@H](C)O)[C@@H](C)O)[C@@H](C)CC)C(C)C (H-[X3]([GABA-X4])KEELIHAHADPMVLIQKTDTGVSLQTYD-OH)
- Kd [24]: 8.98 nM
